Where two headings read alike, the source gives them in different places.
How the values were obtained:
[1] = Solubility of Rev protein; type: physicochemical; details: in the absence of RNA
[2] = in the absence of high salt; cited from earlier work
[3] = tested on: stem IA (HIV-1 RRE RNA hairpin); test: NMR of Rev complexes with stem IA; type: binding; details: 288 K
[4] = tested on: stem IIB (HIV-1 RRE RNA hairpin); test: NMR of Rev complexes with stem IIB; type: binding; details: 288 K

Substance | solubility [1] | solubility [2] | RNA imino resonances on RevDO binding ([3]; 1D 1H NMR, pH 6.5, 0.1 M KCl) | number of backbone amide resonances ([3]; 1H–15N HSQC, 15N-RevDO bound to IA, 0.4 mM, pH 6.5) | arginine Hε protons ([3]; 1H–15N HSQC, RevDO bound to IA) | 1H–15N HSQC peak appearance ([3]; 15N-RevDO bound to IA, 0.4 mM, pH 6.5) | RNA imino resonances on RevDO binding ([4]; 1D 1H NMR, pH 6.5, 0.1 M KCl) | number of backbone amide resonances ([4]; 1H–15N HSQC, 15N-RevDO bound to IIB, 0.4 mM, pH 6.5) | arginine Hε protons ([4]; 1H–15N HSQC, RevDO bound to IIB) | imino proton of Trp45 ([4]; 1H–15N HSQC, RevDO complexes, IIB versus IA) | 1H–15N HSQC peak appearance ([4]; 15N-RevDO bound to IIB, 0.4 mM, pH 6.5)
Rev protein: viral regulatory protein Rev of HIV-1 | poor solubility of Rev in the absence of RNA | poorly soluble in the absence of high salt | – | – | – | – | – | – | – | – | –
RevDO: Truncated HIV-1 Rev (residues 9–64) with mutated dimerization (L12 → S, L60 → R) and higher-order oligomerization (L18 → Q, I55 → N) surfaces | – | – | almost identical to those obtained with the Rev–ARM peptide | ~40 backbone amide resonances | mostly absent with IA | fewer, broader peaks | almost identical to those obtained with the Rev–ARM peptide | ~50 backbone amide resonances | well resolved with IIB | observed only with IIB | reasonably well-resolved peaks

Reference: article PMC4801481 (Biochemistry, 2015)
